Data set [1] concerns the target T1, hPPAR delta (Homo sapiens, UniProt Q03181).
T1 construct: expressed in transfected cells; host or cells: CV-1 cells
T1 sequence (Q03181 211-439 limits assumed): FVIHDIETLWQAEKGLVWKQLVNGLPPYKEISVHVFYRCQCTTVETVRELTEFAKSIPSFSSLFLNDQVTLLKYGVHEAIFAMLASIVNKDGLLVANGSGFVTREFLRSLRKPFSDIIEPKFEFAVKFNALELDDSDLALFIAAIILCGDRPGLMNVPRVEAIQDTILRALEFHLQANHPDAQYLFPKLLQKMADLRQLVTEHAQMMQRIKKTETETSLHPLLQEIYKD
The data set is described as follows: Transient transfection (transactivation) assay in CV-1 cells, GAL4-PPAR LBD chimera, SPAP reporter. The conditions noted are these: read-out: EC50 μM HPPARδ. It is filed as cell-based. In short, it runs like this:
(§1)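 CV-1 cells transiently co-transfected with GAL4 DBD–human PPAR LBD chimera plus 5×GAL4-site SPAP reporter and β-galactosidase; after 16 h, compound added in DME with 10% delipidated FCS for 24 h. SPAP activity normalised to β-galactosidase; values in μM.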

Data set [2] deals with T2, hPPAR alpha (Homo sapiens, UniProt Q07869).
T2 construct: expressed in transfected cells; host or cells: CV-1 cells
T2 sequence (Q07869 239-466 limits assumed): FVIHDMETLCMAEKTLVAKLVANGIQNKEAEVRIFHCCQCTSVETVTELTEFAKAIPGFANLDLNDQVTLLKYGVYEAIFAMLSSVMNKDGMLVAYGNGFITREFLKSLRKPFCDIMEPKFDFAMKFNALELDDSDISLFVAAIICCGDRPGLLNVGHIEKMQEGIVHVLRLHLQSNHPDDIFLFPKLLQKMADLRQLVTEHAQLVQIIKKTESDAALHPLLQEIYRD
Described as above. The conditions noted are these: read-out: EC50 μM HPPARα. It is filed as cell-based. In short, it runs like this:
as §1

Data set [3] deals with T3, hPPAR gamma (Homo sapiens, UniProt P37231).
T3 construct: expressed in transfected cells; host or cells: CV-1 cells
T3 sequence (P37231 238-503 limits assumed): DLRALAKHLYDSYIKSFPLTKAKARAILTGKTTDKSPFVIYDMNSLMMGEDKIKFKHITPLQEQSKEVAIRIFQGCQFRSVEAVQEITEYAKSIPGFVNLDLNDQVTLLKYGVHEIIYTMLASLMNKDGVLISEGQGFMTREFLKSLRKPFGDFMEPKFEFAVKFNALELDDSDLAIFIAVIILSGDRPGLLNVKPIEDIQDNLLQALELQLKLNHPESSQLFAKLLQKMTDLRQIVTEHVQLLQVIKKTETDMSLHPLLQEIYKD
The description is as above. It is filed as cell-based. Particulars: read-out: EC50 μM HPPARγ. Put shortly: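 CV-1 cells were transiently transfected with a GAL4 DBD–human PPARγ LBD chimera, a 5×GAL4-site SPAP reporter and β-galactosidase. After 16 h, the cells were exposed to compound in DME with 10% delipidated FCS for 24 h. Alkaline phosphatase and β-galactosidase activities were then measured in cell extracts.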

Take `COCCn1nc(-c2ccc(C(C)(C)C)cc2)cc1C(=O)NCc1ccc(OC(C)(C)C(=O)O)c(C)c1` [Example 48, 2-[(4-{[({3-[4-(1,1-dimethylethyl)phenyl]-1-[2-(methyloxy)ethyl]-1H-pyrazol-5-yl}carbonyl)amino]methyl}-2-methylphenyl)oxy]-2-methylpropanoic acid]: the melting point (as a rule, the temperature, or range, at which the solid turns liquid) amounted to 112 °C. Also, in data set [1], the EC50 (in general, the concentration that produces a half-maximal response) came out at 2.05 µM. Moreover, the 50% effective concentration (EC50) in data set [2] is 0.066 µM. The 50% effective concentration (EC50) in data set [3] stood at 0.303 µM.
The compound `Cc1cc(CNC(=O)c2cc(-c3ccc(C(C)(C)C)cc3)nn2CC(=O)c2ccccc2)ccc1OC(C)(C)C(=O)O` [Example 49, 2-({4-[({[3-[4-(1,1-dimethylethyl)phenyl]-1-(2-oxo-2-phenylethyl)-1H-pyrazol-5-yl]carbonyl}amino)methyl]-2methylphenyl}oxy)-2-methylpropanoic acid] displayed a melting point of 116 °C. Further, in data set [1], the EC50 was determined as 1.17 µM. For the same compound, in data set [2], the EC50 was 0.257 µM. Besides, in data set [3], the EC50 was found to be 0.052 µM.
Consider `COCCn1nc(C(=O)NCc2ccc(OC(C)(C)C(=O)O)c(C)c2)cc1-c1ccc(C(C)(C)C)cc1` [Example 52, 2-[(4-{[({5-[4-(1,1-dimethylethyl)phenyl]-1-[2-(methyloxy)ethyl]-1H-pyrazol-3-yl}carbonyl)amino]methyl}-2-methylphenyl)oxy]-2-methylpropanoic acid], for which the melting point amounted to 65 °C. The half-maximal effective concentration (EC50) in data set [1] was more than 25 µM. The EC50 in data set [2] was found to be 0.042 µM. Further, in data set [3], the 50% effective concentration (EC50) amounted to 0.478 µM.
As to `Cc1cc(CNC(=O)c2cc(-c3ccc(C(C)(C)C)cc3)[nH]n2)ccc1OC(C)(C)C(=O)O` [Example 53, 2-[(4-{[({5-[4-(1,1-dimethylethyl)phenyl]-1H-pyrazol-3-yl}carbonyl)amino]methyl}-2-methylphenyl)oxy]-2-methylpropanoic acid], the melting point was determined as 100 °C. For the same compound, in data set [1], the concentration giving a half-maximal response (EC50) was more than 25 µM. Moreover, the 50% effective concentration (EC50) in data set [2] worked out at 0.383 µM. Also, the half-maximal effective concentration (EC50) in data set [3] is 0.269 µM.
The compound `C=CCOc1ccc(-c2cc(C(=O)NCc3ccc(OC(C)(C)C(=O)O)c(C)c3)n(C)n2)cc1` [Example 56, 2-methyl-2-[(2-methyl-4-{[({1-methyl-3-[4-(2-propen-1-yloxy)phenyl]-1H-pyrazol-5-yl}carbonyl)amino]methyl}phenyl)oxy]propanoic acid] yielded a melting point of 70 °C. Also, the EC50 in data set [1] was more than 25 µM. The EC50 in data set [2] turned out to be 0.894 µM. In data set [3], the EC50 was determined as 0.287 µM.
`Cc1cc(CNC(=O)c2cc(-c3ccc(OCc4ccccc4)cc3)nn2C)ccc1OC(C)(C)C(=O)O` [Example 57, 2-methyl-2-{[2-methyl-4-({[(1-methyl-3-{4-[(phenylmethyl)oxy]phenyl}-1H-pyrazol-5-yl)carbonyl]amino}methyl)phenyl]oxy}propanoic acid]: the melting point came out at 72 °C. Further, the EC50 in data set [1] was more than 8 µM. In addition, the EC50 in data set [2] turned out to be 0.657 µM. The EC50 in data set [3] was 0.118 µM.

(Values after patent US20080021030A1, “Substituted Pyrazoles As Ppar Agonists” (priority 2003, published 2008).)
